Measured values taken from US12004506B2, “Pharmaceutical composition comprising a cyclic peptide of formula X1-[sequence]-X2 and use for extracorporeal lung treatment” (priority 2013, dated 2024).

Experiments:
[1] = system: sodium ion current in A549 cells (deglycosylated cell surface); assay: Patch clamp assay, whole cell mode, on A549 cells deglycosylated with PNGase F; assay type: cell-based, human; conditions: 240 nM peptide, Eh -100 mV, A549
Method: In whole cell mode experiments as described above, A549 cells were incubated with “PNGase enzyme F” (Peptide-N^4-(N-acetyl-β-D-glucosaminyl)asparagine amidase F) 100 units for 1-5 minutes immediately prior to the patch clamp measurements and glass cover slips with the cultured cells were rinsed with external solution before being transferred to the chamber of the 1 mL bath.
The results of the deglycosylation experiments using the patch clamp assay in whole cell mode are presented in Table IV, wherein the effect of deglycosylation of A549 cells on activation of sodium ion current by peptides of SEQ ID NO:1 to SEQ ID NO:7 is indicated. Whole cell currents were recorded at Eh=−100 mV.

[2] = Particle size of aerosol droplets after nebulizing the aqueous solution; assay type: physicochemical
Method: With the aid of nebulizers the aqueous solution of a cyclised compound of formula I, namely that of the amino acid sequence SEQ ID NO: 1 was transferred into an aerosol. The particle size of the droplets was measured after subjecting the aqueous solution to 3 different nebulizers and is set out in Table II below: […]

[3] = system: sodium ion current in A549 cells (deglycosylated cell surface); assay: Patch clamp assay, whole cell mode, on A549 cells deglycosylated with PNGase F; assay type: cell-based, human; conditions: 240 nM peptide, Eh -100 mV

Compound: C[C@@H]1NC(=O)CNC(=O)[C@H](CCC(=O)O)NC(=O)[C@@H]2CCCN2C(=O)[C@H]([C@@H](C)O)NC(=O)[C@H](CCC(=O)O)NC(=O)[C@H](CCCNC(=N)N)NC(=O)[C@H](CCC(N)=O)NC(=O)CNC(=O)[C@@H](N)CSSC[C@@H](C(=O)O)NC(=O)[C@H](Cc2ccc(O)cc2)NC(=O)[C@H](Cc2c[nH]c3ccccc23)NC(=O)[C@@H]2CCCN2C(=O)[C@H](CCCCN)NC(=O)[C@H](C)NC(=O)[C@H](CCC(=O)O)NC1=O [SEQ ID NO: 1]
- Whole cell current, pre-treatment with PNGase F [1]: 19.6 pA (n = 3)
- Amount of particles with Ø ≤ 5 μm ([2]; nebulizer Type A): 50%
- Median particle diameter ([2]; nebulizer Type A): 4.7 μm
- Amount of particles with Ø ≤ 5 μm ([2]; nebulizer Type B): 70%
- Median particle diameter ([2]; nebulizer Type B): 3.3 μm
- Amount of particles with Ø ≤ 5 μm ([2]; nebulizer Type C): 65%
- Median particle diameter ([2]; nebulizer Type C): 3.7 μm
- Whole cell current, no pre-treatment with PNGase F [3]: 1073.3 ± 15.1 pA
